Read-outs that look alike come from different tables or passages of the source.
How the values were obtained:
murine CCR2 (mCCR2) [1] = molecular target: T1, murine CCR2 (mCCR2) (Mus musculus, UniProt P51683); assay: [3H]INCB3344 association, dissociation and competition association (kinetic) assays on CHO-mCCR2 membranes; type: binding
T1 construct: expressed in transfected cells; host or cells: CHO cells, transient transfection (PEI) with pcDNA3.1+ plasmid; membrane preparation
Method: Radioligand binding assays were performed in a 100 µL reaction volume containing 50 mM Tris-HCl buffer (pH 7.4), 5 mM MgCl2, 0.1% 3-[(3-cholamidopropyl)-dimethylammonio]-1-propanesulfonic acid (CHAPS), 5 nM [^3H]INCB3344 and 50 to 60 µg of membrane protein at 25 °C. Non-specific binding was determined with 10 μM of the cold ligand INCB3344. Displacement assays were carried out using 9 concentrations of competing ligand, ranging from 0.1 nM to 100 μM, for 120 min of incubation. The kinetic parameters of 15a were also determined at 25 °C using a competition association assay as previously described, [27]. For association and competition association experiments, CHO-mCCR2 membranes were added to the reaction volume at different time points, in the absence or presence of 30 nM of competing ligand. For dissociation experiments, CHO-mCCR2 membranes were first incubated with 5 nM [^3H]INCB3344 for 60 min. Dissociation was initiated by addition of 10 µM of INCB3344 at different time points. For all experiments, incubation was terminated by dilution with ice-cold 50 mM Tris-HCl buffer supplemented with 5 mM MgCl2 and 0.05% CHAPS. Separation of bound from free radioligand was performed by rapid filtration over a 96-well GF/B filter plate using a Perkin Elmer Filtermate-harvester (Perkin Elmer, Groningen, the Netherlands) in the case of displacement assays; or over GF/B filters using a Brandel harvester 24 (Brandel, Gaithersburg, MD, USA) for kinetic assays. Filter-bound radioactivity was determined by scintillation spectrometry after addition of Microscint scintillation cocktail (Perkin-Elmer, Groningen, the Netherlands). The P-E 2450 Microbeta2 plate counter (Perkin Elmer, Groningen, The Netherlands) was used for displacement assays, and the TRI Carb 2900 TR counter (Perkin Elmer, Groningen, The Netherlands) for kinetic assays.
All radioligand binding assays were analyzed using Prism 6.0 (GraphPad software, San Diego, CA, USA). All data shown represent means ± SEM of at least three independent experiments performed in duplicate. Ki values were calculated from IC50 values obtained by non-linear regression analysis of the displacement assays and by using the Cheng-Prusoff equation[47]. Dissociation rate constants k off were determined by fitting the dissociation data using an exponential decay model. Association rate constants k on were obtained by converting the apparent association rate constants k obs according to the equation k on = (k obs − k off)/[L], in which L is the radioligand concentration used for the experiments, k obs is the constant rate determined using exponential association analysis and k off represents the mean k off value obtained independently in the dissociation experiments. The kinetic profile of compound 15a was determined by calculation of its kinetic rate index (KRI) value. The KRI values were calculated according to the equation KRI = Bt1/Bt2, in which Bt represents the specific radioligand binding measured at t1 = 15 min and t2 = 210 min. In addition, the association and dissociation rates of 15a were obtained by nonlinear regression analysis of the competition association data using the equations described by Motulsky and Mahan[27]. […] In addition, the RT was calculated by obtaining the reciprocal of the k off. Data obtained from in vivo experiments are expressed as mean ± SEM. […] Non-Gaussian distributed data were analyzed using a two-tailed Mann-Whitney U test. […]

murine CCR2 (mCCR2) [2] = molecular target: T1, murine CCR2 (mCCR2); assay: [3H]INCB3344 displacement assay on CHO-mCCR2 membranes; type: binding; details: displacement of 5 nM [3H]INCB3344, CHO-mCCR2 membranes, 25 °C
Method: Radioligand binding assays were performed in a 100 µL reaction volume containing 50 mM Tris-HCl buffer (pH 7.4), 5 mM MgCl2, 0.1% 3-[(3-cholamidopropyl)-dimethylammonio]-1-propanesulfonic acid (CHAPS), 5 nM [^3H]INCB3344 and 50 to 60 µg of membrane protein at 25 °C. Non-specific binding was determined with 10 μM of the cold ligand INCB3344. Displacement assays were carried out using 9 concentrations of competing ligand, ranging from 0.1 nM to 100 μM, for 120 min of incubation. The kinetic parameters of 15a were also determined at 25 °C using a competition association assay as previously described, [27]. […] Filter-bound radioactivity was determined by scintillation spectrometry after addition of Microscint scintillation cocktail (Perkin-Elmer, Groningen, the Netherlands). […]
All radioligand binding assays were analyzed using Prism 6.0 (GraphPad software, San Diego, CA, USA). […] Ki values were calculated from IC50 values obtained by non-linear regression analysis of the displacement assays and by using the Cheng-Prusoff equation[47]. Dissociation rate constants k off were determined by fitting the dissociation data using an exponential decay model. […] The kinetic profile of compound 15a was determined by calculation of its kinetic rate index (KRI) value. […] In addition, the RT was calculated by obtaining the reciprocal of the k off. Data obtained from in vivo experiments are expressed as mean ± SEM. […]

hCCR2b = details: cited from earlier work

T1 sequence (P51683 whole entry): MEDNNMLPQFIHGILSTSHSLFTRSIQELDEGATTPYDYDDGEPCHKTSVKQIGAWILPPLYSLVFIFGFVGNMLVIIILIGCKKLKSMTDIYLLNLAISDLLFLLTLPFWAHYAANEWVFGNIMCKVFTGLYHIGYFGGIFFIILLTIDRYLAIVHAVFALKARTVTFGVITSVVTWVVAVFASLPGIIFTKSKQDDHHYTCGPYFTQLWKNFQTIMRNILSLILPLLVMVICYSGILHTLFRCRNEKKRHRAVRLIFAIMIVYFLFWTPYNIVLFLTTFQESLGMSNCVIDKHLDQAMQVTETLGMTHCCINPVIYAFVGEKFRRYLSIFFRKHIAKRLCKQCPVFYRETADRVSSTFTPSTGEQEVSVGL

## CC(C)[C@]1(C(=O)N2CCc3ccc(C(F)(F)F)cc3C2)CC[C@@H](N[C@@H]2CCc3cc(Br)ccc32)C1 [15a, ((1S,3R)-3-(((R)-5-bromo-2,3-dihydro-1H-inden-1-yl)amino)-1-isopropylcyclopentyl)(7-(trifluoromethyl)-3,4-dihydroisoquinolin-2(1H)-yl)methanone]
Murine CCR2 (mCCR2) [1]; mCCR2, 25 °C
  kon: 117000 M⁻¹ s⁻¹
Murine CCR2 (mCCR2) [1]; mCCR2, 25 °C, KRI = Bt1/Bt2, t1 = 15 min, t2 = 210 min
  KRI (kinetic rate index): 1.6
Murine CCR2 (mCCR2) [1]; mCCR2, 25 °C, read-out: K D (kinetic, k off/k on)
  Kd: 7.4 ± 1.5 nM
Murine CCR2 (mCCR2) [1]; mCCR2, 25 °C, read-out: k off (converted)
  koff: 0.00085 s⁻¹
Murine CCR2 (mCCR2) [1]; mCCR2, corresponding to 0.051 min^−1, read-out: k off (as set for the simulations) (converted)
  koff: 0.00085 s⁻¹
Murine CCR2 (mCCR2) [2]
  Ki: 10.6 nM
hCCR2b; hCCR2, ref Vilums et al. [24]
  RT: 714 min
hCCR2b; hCCR2, ref [24]
  lifetime (RT) on hCCR2: more than 10 hours
hCCR2b; hCCR2, ref [24], read-out: affinity for human CCR2
  Ki: 2.4 nM
hCCR2b; hCCR2b, ref Vilums et al. [24]
  KRI: 1.7
  Kd: 0.175 nM
  koff: 2.33e-05 s⁻¹
  kon: 130000 M⁻¹ s⁻¹

From paper PMC5427923, “A novel CCR2 antagonist inhibits atherogenesis in apoE deficient mice by achieving high receptor occupancy” (Scientific Reports, 2017)
